Converted amounts (≈) assume the structure as drawn. Like-named read-outs stand apart in the source and are kept apart here. Positions of bridges follow the written chain, without caps; N, C: chain ends. Non-standard residues stand in square brackets, D forms with d. Residues, ends and D or L forms follow the SMILES beside them. *: point of attachment. Benzoyl(4-CF3) = O=C(c1ccc(C(F)(F)F)cc1)*; X36 = O=C(c1cc(C(F)(F)F)cc(C(F)(F)F)c1)*; Lauroyl = CCCCCCCCCCCC(=O)*; Octanoyl = CCCCCCCC(=O)*; Dab = NCC[C@H](N)C(=O)O; Abu = CC[C@H](N)C(=O)O; Dap = NC[C@H](N)C(=O)O
Legend:
Enterobacter cloacae = tested on: Enterobacter cloacae
Protocol: (§1) MICs of the lipopeptides (trifluoroacetic acid salt, TFA) were determined by broth microdilution in cation-adjusted Mueller-Hinton broth (CAMHB) (Oxoid Australia, Thebarton, SA, Australia) according to Clinical and Laboratory Standards Institute standards (Clinical and Laboratory Standards Institute. Performance standards for antimicrobial susceptibility testing; eighteenth informational supplement M100-S18. Wayne, Pa., 2008). Polymyxin B (sulphate) was employed as control. […]

Pseudomonas aeruginosa = tested on: Pseudomonas aeruginosa
Protocol: as §1

Acinetobacter baumannii = tested on: Acinetobacter baumannii
Protocol: as §1

| Compound | Minimum inhibitory concentration, Ec FADDI-EC001 (Enterobacter cloacae) [µg/mL] | Minimum inhibitory concentration, Ec FADDI-EC003 (Enterobacter cloacae) [µg/mL] | Minimum inhibitory concentration, Ec FADDI-EC006 (Enterobacter cloacae) [µg/mL] | Minimum inhibitory concentration, Pa ATCC 27853 (Pseudomonas aeruginosa) [µg/mL] | Minimum inhibitory concentration, Pa FADDI-PA022 (Pseudomonas aeruginosa) [µg/mL] | Minimum inhibitory concentration, Pa FADDI-PA025 (Pseudomonas aeruginosa) [µg/mL] | Minimum inhibitory concentration, Ab A ATCC 17978 (Acinetobacter baumannii) [µg/mL] | Minimum inhibitory concentration, Ab ATCC 19606 (Acinetobacter baumannii) [µg/mL] | Minimum inhibitory concentration, Ab FADDI-AB034 (Acinetobacter baumannii) [µg/mL] | Minimum inhibitory concentration, Ec FADDI-EC001 (Enterobacter cloacae; Enterobacter cloacae FADDI-EC001, broth microdilution in CAMHB) [µg/mL] | Minimum inhibitory concentration, Ec FADDI-EC003 (Enterobacter cloacae; Enterobacter cloacae FADDI-EC003, broth microdilution in CAMHB) [µg/mL] | Minimum inhibitory concentration, Ec FADDI-EC006 (Enterobacter cloacae; Enterobacter cloacae FADDI-EC006, broth microdilution in CAMHB) [µg/mL] | Minimum inhibitory concentration, Pa ATCC 27853 (Pseudomonas aeruginosa; Pseudomonas aeruginosa ATCC 27853, broth microdilution in CAMHB) [µg/mL] | Minimum inhibitory concentration, Pa FADDI-PA022 (Pseudomonas aeruginosa; Pseudomonas aeruginosa FADDI-PA022, broth microdilution in CAMHB) [µg/mL] | Minimum inhibitory concentration, Pa FADDI-PA025 (Pseudomonas aeruginosa; Pseudomonas aeruginosa FADDI-PA025, broth microdilution in CAMHB) [µg/mL] | Minimum inhibitory concentration, Ab A ATCC 17978 (Acinetobacter baumannii; Acinetobacter baumannii ATCC 17978, broth microdilution in CAMHB) [µg/mL] | Minimum inhibitory concentration, Ab ATCC 19606 (Acinetobacter baumannii; Acinetobacter baumannii ATCC 19606, broth microdilution in CAMHB) [µg/mL] | Minimum inhibitory concentration, Ab FADDI-AB034 (Acinetobacter baumannii; Acinetobacter baumannii FADDI-AB034, broth microdilution in CAMHB) [µg/mL] |
| --- | --- | --- | --- | --- | --- | --- | --- | --- | --- | --- | --- | --- | --- | --- | --- | --- | --- | --- |
| CC(C)C[C@H]1NC(=O)[C@H](CCN)NC(=O)[C@@H](NC(=O)[C@H](CN)NC(=O)[C@@H](NC(=O)[C@H](CCN)NC(=O)c2ccc(C(F)(F)F)cc2)[C@@H](C)O)CCNC(=O)[C@H]([C@@H](C)O)NC(=O)[C@H](CCN)NC(=O)[C@H](CCN)NC(=O)[C@H]([C@@H](C)O)NC1=O [Compound 56] ({Benzoyl(4-CF3)}-[Dab]T[Dap][Dab][Dab][dL]T[Dab][Dab]T; lactam 4-C) | <0.125 | <0.125 | 0.25 (≈ 0.213 µM) | 0.5 (≈ 0.425 µM) | 2 (≈ 1.7 µM) | 4 (≈ 3.4 µM) | 1 (≈ 0.851 µM) | 2 (≈ 1.7 µM) | 1 (≈ 0.851 µM) |  |  |  |  |  |  |  |  |  |
| colistin [reference compound] |  |  |  |  |  |  |  |  |  | 0.25 | <0.125 | <0.125 | 1 | 1 | 2 | 0.5 | 1 | 0.5 |
| CC[C@@H]1NC(=O)[C@@H](CC(C)C)NC(=O)[C@H](CCN)NC(=O)[C@@H](NC(=O)[C@H](CN)NC(=O)[C@@H](NC(=O)[C@H](CCN)NC(=O)c2cc(C(F)(F)F)cc(C(F)(F)F)c2)[C@@H](C)O)CCNC(=O)[C@H]([C@@H](C)O)NC(=O)[C@H](CCN)NC(=O)[C@H](CCN)NC1=O [Compound 97] (X36-[Dab]T[Dap][Dab][Dab][dL][Abu][Dab][Dab]T; lactam 4-C) | 0.5 (≈ 0.407 µM) | 0.25 (≈ 0.204 µM) | 0.5 (≈ 0.407 µM) | 0.5 (≈ 0.407 µM) | 0.5 (≈ 0.407 µM) | 1 (≈ 0.815 µM) | <0.125 | 0.5 (≈ 0.407 µM) | 0.25 (≈ 0.204 µM) |  |  |  |  |  |  |  |  |  |
| CCCCCCCC(=O)N[C@@H](CCN)C(=O)N[C@H](C(=O)N[C@@H](CN)C(=O)N[C@H]1CCNC(=O)[C@H]([C@@H](C)O)NC(=O)[C@H](CCN)NC(=O)[C@H](CCN)NC(=O)[C@H]([C@@H](C)O)NC(=O)[C@@H](CC(C)C)NC(=O)[C@H](CN)NC1=O)[C@@H](C)O [Compound 52] (Octanoyl-[Dab]T[Dap][Dab][Dap][dL]T[Dab][Dab]T; lactam 4-C) | 0.25 (≈ 0.224 µM) | 0.25 (≈ 0.224 µM) | 0.5 (≈ 0.448 µM) | 0.5 (≈ 0.448 µM) | 1 (≈ 0.897 µM) | >32 | 0.5 (≈ 0.448 µM) | 1 (≈ 0.897 µM) | 0.5 (≈ 0.448 µM) |  |  |  |  |  |  |  |  |  |
| CCCCCCCCCCCC(=O)N[C@@H](CCN)C(=O)N[C@H](C(=O)N[C@@H](CCN)C(=O)N[C@H]1CCNC(=O)[C@H]([C@@H](C)O)NC(=O)[C@H](CCN)NC(=O)[C@H](CCN)NC(=O)[C@H]([C@@H](C)O)NC(=O)[C@@H](CC(C)C)NC(=O)[C@H](CCN)NC1=O)[C@@H](C)O [Compound 28] (Lauroyl-[Dab]T[Dab][Dab][Dab][dL]T[Dab][Dab]T; lactam 4-C) | 0.5 (≈ 0.417 µM) | 0.5 (≈ 0.417 µM) | 0.5 (≈ 0.417 µM) | 2 (≈ 1.67 µM) | 4 (≈ 3.33 µM) | 4 (≈ 3.33 µM) | 2 (≈ 1.67 µM) | 2 (≈ 1.67 µM) | 1 (≈ 0.834 µM) |  |  |  |  |  |  |  |  |  |
| CCCCCCCC(=O)N[C@@H](CCN)C(=O)N[C@H](C(=O)N[C@@H](C(=O)N[C@H]1CCNC(=O)[C@H]([C@@H](C)O)NC(=O)[C@H](CCN)NC(=O)[C@H](CCN)NC(=O)[C@H]([C@@H](C)O)NC(=O)[C@@H](CC(C)C)NC(=O)[C@H](CCN)NC1=O)[C@H](C)O)[C@@H](C)O [Compound 15] (Octanoyl-[Dab]T[dT][Dab][Dab][dL]T[Dab][Dab]T; lactam 4-C) | 1 (≈ 0.874 µM) | 2 (≈ 1.75 µM) | 1 (≈ 0.874 µM) | 16 (≈ 14 µM) | 16 (≈ 14 µM) | >32 | 0.5 (≈ 0.437 µM) | 2 (≈ 1.75 µM) | 1 (≈ 0.874 µM) |  |  |  |  |  |  |  |  |  |

— USRE48335E1, “Polymyxin derivatives as antimicrobial compounds” (priority 2014, dated 2020)
